Values joined by “and” are separate entries in the source; they are usually repeats but may differ in a detail not shown here. Equal values may be shown once.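 Where inhibition never reached the appropriate level, the endpoint shown equals the highest concentration tested. Otherwise, values were interpolated linearly from a five-concentration, 48-hour dose response in 96-well plates. Here, GI50 denotes the concentration required for 50% inhibition of growth. TGI marks complete inhibition of growth.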
What was measured:
Assay in all cases: inhibition of tumour cell growth, NCI panel, 48 h
UACC-257 melanoma = tested on: UACC-257 melanoma
COLO 205 colon = tested on: COLO 205 colon
EKVX NSCLC = tested on: EKVX NSCLC
SF-295 CNS = tested on: SF-295 CNS
UO-31 renal = tested on: UO-31 renal
RPMI-8226 leukemia = tested on: RPMI-8226 leukemia
NCI-H226 lung = tested on: NCI-H226 lung
DU-145 prostate = tested on: DU-145 prostate
HOP-62 NSCLC = tested on: HOP-62 NSCLC
M19-MEL melanoma = tested on: M19-MEL melanoma
DMS 273 small cell lung = tested on: DMS 273 small cell lung

Row | Structure (SMILES) | TGI (UACC-257 melanoma) | TGI (COLO 205 colon) | TGI (EKVX NSCLC) | TGI (SF-295 CNS) | TGI (UO-31 renal) | TGI (RPMI-8226 leukemia) | TGI (NCI-H226 lung) | TGI (DU-145 prostate) | TGI (HOP-62 NSCLC) | TGI (M19-MEL melanoma) | TGI (DMS 273 small cell lung) | GI50 (UACC-257 melanoma) | GI50 (COLO 205 colon) | GI50 (EKVX NSCLC) | GI50 (SF-295 CNS) | GI50 (UO-31 renal) | GI50 (RPMI-8226 leukemia) | GI50 (NCI-H226 lung) | GI50 (DU-145 prostate) | GI50 (HOP-62 NSCLC)
1 | NCCCNCCCCN1CC1 | 4.71 µM | 4.06 µM | 16.7 µM | > 55.9 µM | > 100 µM | > 21.3 µM | > 20.9 µM | 6.17 µM | 14.1 µM | – | – | – | – | – | – | – | – | – | – | –
2 | Cc1sc2nc3n(c(=O)c2c1C)N=CN(c1ccc(F)cc1)C3 | > 100 µM | > 100 µM | > 100 µM | > 100 µM | > 100 µM | > 100 µM | > 100 µM | > 100 µM | > 100 µM | – | – | – | – | – | – | – | – | – | – | –
3 | Fc1cc(-c2cc(-c3ccc4c(c3)OCO4)n[nH]2)c(Cl)cc1Cl | 27.9 µM | > 23.4 µM | 5.17 µM | 9.4 µM | 6.46 µM | > 46.4 µM | 5.7 µM | 13 µM | 5.81 µM | – | – | – | – | – | – | – | – | – | – | –
4 | c1ccc(CN2CCN3CCN(CC2)CCN(Cc2ccccc2)CC3)cc1 | 8.8 µM | 5.06 µM | 32.6 µM | > 55.2 µM | > 81.5 µM | 9.83 µM | 19.1 µM | 29.6 µM | 32.5 µM | – | – | – | – | – | – | – | – | – | – | –
5 | NC(N)=NCCCC(NC(=O)OCCCCn1ccc(N)nc1=O)C(=O)O (stereo unspecified) | > 100 µM | > 100 µM | > 100 µM | > 100 µM | > 100 µM | > 100 µM | > 100 µM | > 100 µM | > 100 µM | – | – | – | – | – | – | – | – | – | – | –
6 | CC1=NN(c2nc(N)nc(CF)n2)C(C)(C)C1 | > 100 µM | > 100 µM | > 100 µM | > 100 µM | > 100 µM | > 100 µM | > 100 µM | > 100 µM | > 100 µM | – | – | – | – | – | – | – | – | – | – | –
7 | CC1(C)CCc2c(c(N=Nc3ccc(F)cc3)c3ccccc3c2O)O1 | 41.1 µM | > 100 µM | 97 µM | 49.8 µM | > 100 µM | > 100 µM | > 100 µM | 35.8 µM | 57.3 µM | – | – | – | – | – | – | – | – | – | – | –
8 | NC(CSSCC(N)Cc1ccccc1)Cc1ccccc1 (stereo unspecified) | > 100 µM | > 100 µM | > 100 µM | > 100 µM | > 100 µM | > 100 µM | – | – | > 100 µM | > 100 µM | – | – | – | – | – | – | – | – | – | –
9 | O=C1C(=Cc2ccc(Cl)c(Cl)c2)C([O-])=C([P+](c2ccccc2)(c2ccccc2)c2ccccc2)C([O-])=C1[P+](c1ccccc1)(c1ccccc1)c1ccccc1 | 5.8 µM | 3.28 µM | 6.64 µM | 6.74 µM | 8.89 µM | 9.23 µM | 7.14 µM | 28.1 µM | 7.8 µM | – | – | – | – | – | – | – | – | – | – | –
10 | C=C1CN(C2=NCCO2)C1 | > 100 µM | > 100 µM | > 100 µM | > 100 µM | > 100 µM | > 100 µM | > 100 µM | > 100 µM | > 100 µM | – | – | – | – | – | – | – | – | – | – | –
11 | COC(=O)C(NC(=O)c1ccccc1)C(c1ccc(Cl)cc1)P(=O)(OC)OC (stereo unspecified) | > 100 µM | > 100 µM | > 100 µM | > 100 µM | > 100 µM | > 100 µM | > 100 µM | – | > 100 µM | > 100 µM | > 100 µM | – | – | – | – | – | – | – | – | –
12 | S=c1[nH]c2ccc(I)cc2c(=S)n1Cc1ccccc1 | 7.34 µM | 25.2 µM | 23.7 µM | 11.5 µM | 24.8 µM | 12.1 µM | > 100 µM | 11.9 µM | 22.8 µM | – | – | – | – | – | – | – | – | – | – | –
13 | CCC[C@@H]1C(=O)N=C(N)N1C(=O)OCc1ccccc1 | > 100 µM | > 100 µM | > 100 µM | > 100 µM | > 100 µM | > 100 µM | > 100 µM | > 100 µM | > 100 µM | – | – | – | – | – | – | – | – | – | – | –
14 | C=CC(C)(C)C(=C)C(=O)Nc1ccccc1I | > 100 µM | > 100 µM | > 100 µM | > 100 µM | > 100 µM | > 100 µM | > 100 µM | > 100 µM | > 100 µM | – | – | – | – | – | – | – | – | – | – | –
15 | Cc1ccc(NC(=O)CSC(N)=O)cc1C | > 100 µM | > 100 µM | > 100 µM | > 100 µM | > 100 µM | > 100 µM | > 100 µM | > 100 µM | > 100 µM | – | – | – | – | – | – | – | – | – | – | –
16 | C/C=C(/C)C(=O)O[C@H]1[C@H](O)CC(c2ccc3c(c2O)C(O)=C2C(=O)C4(OC)C(O)=C(C(N)=O)C(=O)[C@H](CC(=O)c5ccccc5O)C4CC2[C@@]3(C)OC)O[C@@H]1C (stereo partly specified) | – | 0.0288 µM | 0.518 µM | 0.193 µM and 0.128 µM | 2.34 µM | 0.557 µM and 1.76 µM | 2.33 µM | – | – | 0.768 µM | – | – | – | – | – | – | – | – | – | –
17 | N#CC(C#N)=C1C(=O)NC(N)=C1C#N | > 100 µM | > 100 µM | > 100 µM | > 100 µM | > 100 µM | > 100 µM | > 100 µM | > 100 µM | > 100 µM | – | – | – | – | – | – | – | – | – | – | –
18 | COc1cc(Br)c(CC2C3=C(CCN2C(=O)C2CCC2)CC(=O)CC3)cc1O (stereo unspecified) | > 100 µM | 40 µM | > 100 µM | > 100 µM | > 100 µM | > 100 µM | > 100 µM | > 100 µM | > 100 µM | – | – | – | – | – | – | – | – | – | – | –
19 | Cc1cn(S(=O)(=O)c2ccccc2)c2c(OCc3ccccc3)cc(NS(C)(=O)=O)cc12 | > 78 µM | 77.2 µM | > 44.6 µM | > 100 µM | > 100 µM | > 63.7 µM | > 94.4 µM | > 100 µM | > 100 µM | – | – | – | – | – | – | – | – | – | – | –
20 | CN(C)/N=N/c1nc[nH]c1C(N)=O | > 1000 µM | > 1000 µM | > 169 µM | > 1000 µM | 96.9 µM and > 793 µM | – | – | > 1000 µM | – | > 94.7 µM | 88.3 µM | 225 µM | 139 µM | 94.1 µM and > 134 µM | 44 µM | 24.5 µM | 6.81 µM | 140 µM | 51.2 µM | 43.8 µM
21 | COc1ccc(Sc2ccccc2N)cc1 | > 100 µM | 32.8 µM | > 100 µM | > 100 µM | 92.9 µM | > 100 µM | 89.4 µM | – | > 100 µM | > 100 µM | > 100 µM | – | – | – | – | – | – | – | – | –
